Reference: patent US20220354811A1, “METHODS AND COMPOSITIONS FOR MODULATING MACROPHAGES POLARIZATION” (INSERM (INSTITUT NATIONAL DE LA SANTÉ ET DE LA RECHERCHE …, priority 2019, published 2022)

Columns and labels:
[1] = biological target: T1, caspase-8 (Homo sapiens, UniProt Q14790); assay: Caspase-8 activity in cellulo in CSF-1-differentiating monocytes (flow cytometry, IETD); format: cell-based; parameters: endogenous in cells; host or cells: primary human peripheral blood monocytes exposed to CSF-1; conditions: CSF-1 2 days
Description: FIG. 5. […] Caspases activities from 3 different healthy donors was examined by flow cytometry analysis. The results are expressed as percentage of IETD or DEVD positive cells and represent the mean±SD of 3 independent experiments performed in duplicate. n.s. denotes not statistically significant according to a paired student t test. *P<0.05, **P<0.01, ***P<0.001 according to a paired student t test (versus d2). Asterisks indicate cleavage fragments. Each panel is representative of at least 3 independent experiments.
To analyze the macrophagic differentiation of monocytes, the cells were washed with ice-cold phosphate buffered saline (PBS, Life Technologies, 14190169), incubated at 4° C. for 10 min in PBS/bovine serum albumin (BSA 0.5%, Dutscher, 871002) with anti-CD16, anti-CD71 and anti-CD163 or isotype controls (Miltenyi and BD Biosciences, catalog numbers were 130-113-396, 130-097-628 and 551374). […] Fluorescence was measured with a MACSQuant® Analyzer (Miltenyi, Paris, France). […] Fluorescence was measured with a MACSQuant® Analyzer (Miltenyi, Paris, France). […] Fluorescence, that indicate the internalization of particles, was measured with a MACSQuant® Analyzers (Miltenyi, France). Trypan blue solution was used to quench the fluorescence from particles that were not internalized. […]
After 2 days, caspase-8 activity was assessed by flow cytometry using Ac-IETD-FITC as substrate (data not shown).
Target sequence in this assay (Q14790 217-479): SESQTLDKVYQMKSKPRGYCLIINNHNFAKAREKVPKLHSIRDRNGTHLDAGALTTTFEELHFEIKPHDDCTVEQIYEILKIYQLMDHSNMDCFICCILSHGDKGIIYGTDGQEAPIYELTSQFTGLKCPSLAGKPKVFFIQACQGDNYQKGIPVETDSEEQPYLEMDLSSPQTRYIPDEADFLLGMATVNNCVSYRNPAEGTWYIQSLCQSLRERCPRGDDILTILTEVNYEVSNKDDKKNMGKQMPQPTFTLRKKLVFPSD

[2] = biological target: T1, caspase-8; assay: Recombinant caspase-8 activity in vitro (Ac-IETD-AMC substrate); format: biochemical; parameters: using active recombinant proteins of caspase-8 and caspase-3; purchased Enzo life sciences ALX-201-062; conditions: recombinant caspase-8, Ac-IETD-AMC
Description: FIG. 4. […] (A) Measures of caspase-8 activity (IETD-AMC). IETD-CHO treatment is used as positive control in the in vitro assay. The results are expressed as A.U./min and represent the mean of 3 independent experiments realized in duplicate (B) Measures of caspase-3 activity (DEVD-AMC). DEVD-CHO is used as positive control in the in vitro assay. The results are expressed as A.U./min and represent the mean of 3 independent experiments realized in duplicate. Human CSF-1 was purchased from Miltenyi (130-096-493). […] Mouse caspase-8 was from R&D Systems (AF705). HRP-conjugated rabbit anti-goat was purchased from Dako ([…]) and HRP-conjugated goat anti-rabbit was from Cell Signaling (5127). Active recombinant caspase-8 (ALX-201-062) and -3 (ALX-201-059) were from Enzo life sciences. […] Each assay (in triplicate) was performed with 10 μg of protein prepared from control or stimulated cells. […] Enzyme activities were expressed in arbitrary units (A.U.) per min and per mg of proteins. The same protocol was used with 0.25 units of active recombinant caspase-8 (Enzo, ALX-201-062) or -3 (Enzo, ALX-201-059) in each triplicate.
Target sequence in this assay (Q14790 217-374 limits assumed): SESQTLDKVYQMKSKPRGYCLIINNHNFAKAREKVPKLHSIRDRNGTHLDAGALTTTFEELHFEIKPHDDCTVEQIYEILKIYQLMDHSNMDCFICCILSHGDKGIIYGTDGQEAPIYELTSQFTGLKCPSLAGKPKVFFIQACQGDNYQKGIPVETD
Target sequence in this assay (Q14790 385-479 limits assumed): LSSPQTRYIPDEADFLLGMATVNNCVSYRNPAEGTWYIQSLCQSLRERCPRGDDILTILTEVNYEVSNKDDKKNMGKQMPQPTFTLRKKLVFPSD

[3] = tested on: human freshly isolated monocytes; assay: Spontaneous apoptosis of untreated monocytes cultured without CSF-1 (Annexin V staining); format: cell-based; conditions: 24 h in culture without CSF-1

For `C[C@H](NC(=O)C(=O)Nc1ccccc1C(C)(C)C)C(=O)N[C@@H](CC(=O)O)C(=O)COc1c(F)c(F)cc(F)c1F` [Emricasan, (S)-3-((S)-2-(2-((2-(tert-Butyl)phenyl)amino)-2-oxoacetamido)propanamido)-4-oxo-5-(2,3,5,6-tetrafluorophenoxy)pentanoic acid], the “single dose that abrogated caspase-8 activity in cellulo” value ([1]; flow cytometry) was 2 µM, the IC50 [2] was 12 nM and the “concentration that abrogated / fully inhibited caspase-8 activity” value [2] was 0.2 µM. The “concentration sufficient to abrogate Annexin V staining” value [3] was 2 µM.
For `CC(C)[C@H](NC(=O)c1ccc2ccccc2n1)C(=O)N[C@@H](CC(=O)O)C(=O)COc1c(F)cccc1F` [Q-VD-OPh], the “effect on caspase-8 activity in cellulo” value ([1]; added twice at 100 μM) was “strong inhibition”, the IC50 [2] was ~1000 nM and the “concentration that abrogated / fully inhibited caspase-8 activity” value [2] was 50 µM. For the same molecule, the “concentration sufficient to abrogate Annexin V staining” value [3] was ≤ 5 µM.
